Like-named read-outs stand apart in the source and are kept apart here.
Columns and labels:
HER3 = biological target: T1, HER3 (Homo sapiens, UniProt P21860); test: HER3/ERBB3 degradation (western blot, OVCAR8 cells); type: cell-based
T1 construct: endogenous in cells; host or cells: OVCAR8
Experimental: FIG. 10 illustrates a Western blot of Compound 102-related degradation of ERBB3.
In various embodiments, treatment with PROTAC was performed in one of two ways: 1) For experiments involving >16 h exposure to compound, a 1000× stock was added to cells followed by gentle agitation; 2) For shorter treatments, a 2× stock was added to an equal volume of cells to ensure uniform drug exposure. For immortalized cell lines, 2×10^6 cells per treatment condition were collected and washed once with ice cold PBS (IX), followed by lysis in buffer containing 20 mM Tris [pH 8.0], 0.25% sodium deoxycholate, 1% Triton X-100, supplemented with protease (Roche) and phosphatase inhibitors (10 mM NaF, 2 mM Na3VO4, 10 mM β-glycerophosphate, 10 mM Na-pyrophosphate). Lysates were spun at 15,000×g for 10 min at 4° C. and supernatant was quantified for total protein content using the Pierce BCA Protein Assay (Thermo Fisher Scientific). 30 μg of protein was loaded onto 12% SDS-PAGE gels or 4-15% Mini-PROTEAN TGX precast gradient gels (Bio-Rad), transferred onto nitrocellulose membranes, and probed with the specified primary antibodies overnight with rocking at 4° C. in 1×TBS-T containing 5% non-fat milk.
(§1) Either anti-rabbit or anti-mouse HRP-conjugated secondary antibodies (Pierce) were incubated with the membranes for 1 h at room temperature at 1:10,000 dilutions in 5% non-fat milk in IX TBS-T. Imaging was performed using the ECL Prime chemiluminescent western blot detection reagents (Amersham) followed by visualization with the Bio-Rad ChemiDoc imaging instrument. All western blots were subsequently processed and quantified using the accompanying Bio-Rad Image Lab software. Primary antibodies used were: Anti-actin antibody (Cat. #MA 1-744) purchased from ThermoFisher Scientific; anti-BTK (Cat. #8547), anti-pBTK (Y223, Cat. #5082), anti-ITK (Cat. #2380), anti-GAPDH (Cat. #5179), anti-IKZF1 (Cat. #9034), and anti-IKZF3 (Cat. #15103) antibodies purchased from Cell Signaling Technology. All antibodies were used at 1:1,000 dilutions in 5% non-fat milk in 1×TBS-Tween (TBS-T) or Blotto blocker (Thermo Scientific) unless otherwise noted in supplier specifications.

BTK = BTK (Homo sapiens, UniProt Q06187); test: BTK degradation in NAMALWA cells (immunoblot); type: cell-based; set-up: host or cells: NAMALWA; settings: for ability to degrade BTK: dose escalation; for DC50: concentration needed to degrade 50% of the total pool of BTK; for Max: maximal BTK degradation
Sequence of BTK (Q06187 whole entry): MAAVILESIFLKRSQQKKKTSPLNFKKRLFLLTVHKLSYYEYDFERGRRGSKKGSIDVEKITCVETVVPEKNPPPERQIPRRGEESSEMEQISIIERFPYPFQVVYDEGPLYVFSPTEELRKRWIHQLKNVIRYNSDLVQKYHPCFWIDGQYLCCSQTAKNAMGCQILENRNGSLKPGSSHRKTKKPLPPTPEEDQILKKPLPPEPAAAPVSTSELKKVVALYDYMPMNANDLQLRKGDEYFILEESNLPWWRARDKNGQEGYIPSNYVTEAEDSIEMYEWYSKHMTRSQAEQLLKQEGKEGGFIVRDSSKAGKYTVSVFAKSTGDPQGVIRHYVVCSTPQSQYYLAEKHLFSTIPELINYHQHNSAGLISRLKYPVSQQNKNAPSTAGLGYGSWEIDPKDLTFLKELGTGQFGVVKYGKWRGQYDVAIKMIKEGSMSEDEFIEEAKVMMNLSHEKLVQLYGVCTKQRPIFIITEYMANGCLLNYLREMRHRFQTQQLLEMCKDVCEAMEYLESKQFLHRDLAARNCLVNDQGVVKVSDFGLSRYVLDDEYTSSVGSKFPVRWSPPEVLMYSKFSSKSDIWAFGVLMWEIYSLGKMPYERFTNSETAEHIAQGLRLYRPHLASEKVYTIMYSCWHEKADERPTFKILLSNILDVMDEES
Experimental: NAMALWA and Jurkat cell lines were purchased from ATCC and cultured according to supplier guidelines at 37° C. […] Wild-type and C481S BTK XLA cell lines were cultured as previously described (39). Written, informed consent was obtained prior to the collection of cells from CLL patients using the IWCLL2008 criteria. Isolation of mononuclear cells from peripheral blood was prepared using density gradient centrifugation. B-cells were then negatively selected ([…] Technologies). […] They were maintained at 37° C. in 5% CO2.
Lysates were spun at 15,000×g for 10 min at 4° C. and supernatant was quantified for total protein content using the Pierce BCA Protein Assay (Thermo Fisher Scientific).
as §1, with “Primary antibodies used were: Anti-actin antibody (Cat. #MA 1-744) purchased from ThermoFisher Scientific; anti-BTK (Cat. #8547), anti-pBTK (Y223, Cat. #5082), anti-ITK (Cat. #2380), anti-GAPDH (Cat. #5179), anti-IKZF1 (Cat. #9034), and anti-IKZF3 (Cat. #15103) antibodies purchased from Cell Signaling Technology.” left out

T1 sequence (P21860 20-1342): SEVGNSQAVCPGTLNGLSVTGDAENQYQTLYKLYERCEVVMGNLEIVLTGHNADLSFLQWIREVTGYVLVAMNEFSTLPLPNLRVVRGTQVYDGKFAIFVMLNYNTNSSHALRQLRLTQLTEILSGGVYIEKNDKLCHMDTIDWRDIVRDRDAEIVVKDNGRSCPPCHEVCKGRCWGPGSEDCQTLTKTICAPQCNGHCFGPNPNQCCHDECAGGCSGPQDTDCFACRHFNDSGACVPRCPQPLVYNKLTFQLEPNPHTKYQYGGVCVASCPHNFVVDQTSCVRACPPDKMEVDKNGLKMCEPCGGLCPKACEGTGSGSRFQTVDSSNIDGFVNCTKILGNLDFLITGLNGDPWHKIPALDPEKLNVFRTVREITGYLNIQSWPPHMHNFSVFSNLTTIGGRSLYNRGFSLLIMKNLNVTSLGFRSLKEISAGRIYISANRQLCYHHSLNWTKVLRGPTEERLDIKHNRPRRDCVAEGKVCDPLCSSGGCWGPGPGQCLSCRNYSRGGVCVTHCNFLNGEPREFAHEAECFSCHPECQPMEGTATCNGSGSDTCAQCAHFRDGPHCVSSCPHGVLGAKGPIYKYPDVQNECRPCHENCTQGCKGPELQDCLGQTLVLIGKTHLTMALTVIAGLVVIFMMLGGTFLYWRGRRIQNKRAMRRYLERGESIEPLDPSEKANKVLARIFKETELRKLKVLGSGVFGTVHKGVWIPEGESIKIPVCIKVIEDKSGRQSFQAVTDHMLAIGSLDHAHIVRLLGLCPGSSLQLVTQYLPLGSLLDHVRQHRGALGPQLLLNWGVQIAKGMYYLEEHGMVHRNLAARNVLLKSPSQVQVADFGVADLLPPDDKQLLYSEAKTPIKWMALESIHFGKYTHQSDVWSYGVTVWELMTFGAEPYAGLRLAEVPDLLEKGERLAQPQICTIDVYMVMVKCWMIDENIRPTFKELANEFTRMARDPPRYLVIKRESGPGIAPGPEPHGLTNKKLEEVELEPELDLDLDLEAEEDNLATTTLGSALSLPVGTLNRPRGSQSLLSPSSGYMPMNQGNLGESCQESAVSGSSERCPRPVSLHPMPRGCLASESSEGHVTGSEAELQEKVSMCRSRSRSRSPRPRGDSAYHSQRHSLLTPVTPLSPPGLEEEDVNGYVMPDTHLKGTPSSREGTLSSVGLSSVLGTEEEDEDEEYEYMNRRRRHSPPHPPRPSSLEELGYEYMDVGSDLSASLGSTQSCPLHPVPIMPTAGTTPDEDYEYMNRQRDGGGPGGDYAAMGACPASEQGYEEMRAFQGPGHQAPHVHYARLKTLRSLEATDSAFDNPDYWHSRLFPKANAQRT

| SMILES | HER3 Degradation (HER3) | DC50 (BTK; NAMALWA cells, read-out: DC50) [nM] | also measured |
| --- | --- | --- | --- |
| Nc1ncnc2c1c(-c1ccc(Oc3ccccc3)cc1)nn2C1CCN(CCCCOCCCCOCC(=O)Nc2ccc3c(c2)C(=O)N(C2CCC(=O)NC2=O)C3=O)CC1 (stereo not shown) [Compound 105, 2-[4-[4-[4-[4-amino-3-(4-phenoxyphenyl)pyrazolo[3,4-d]pyrimidin-1-yl]-1-piperidyl]butoxy]butoxy]-N-[2-(2,6-dioxo-3-piperidyl)-1,3-dioxo-isoindolin-5-yl]acetamide] | No | 11.6 | Max (BTK; at 250 nM, NAMALWA cells): >99%; hook-effect (increase in BTK levels at high PROTAC concentration) (BTK; up to 2.5 μM, NAMALWA cells, 24 h): (No |
| C=CC(=O)Nc1cc(-c2nn(C3CCN(CCCCCCOCCOCCOCCOCC(=O)N[C@H](C(=O)N4C[C@H](O)C[C@H]4C(=O)NCc4ccc(-c5scnc5C)cc4)C(C)(C)C)CC3)c3ncnc(N)c23)ccc1Oc1ccccc1 [Compound 125, (2S,4R)-1-((S)-22-(4-(3-(3-acrylamido-4-phenoxyphenyl)-4-amino-1H-pyrazolo[3,4-d]pyrimidin-1-yl)piperidin-1-yl)-2,2-dimethyl-5-oxo-7,10,13,16-tetraoxa-4-azadocosanecarbonyl)-4-hydroxy-N-(4-(4-methylthiazol-5-yl)benzyl)pyrrolidine-2-carboxamide] | No | – | – |
| C=CC(=O)Nc1cc(-c2nn(C3CCN(CCCCCCOCCOCCOCCOCCOCC(=O)N[C@H](C(=O)N4C[C@H](O)C[C@H]4C(=O)NCc4ccc(-c5scnc5C)cc4)C(C)(C)C)CC3)c3ncnc(N)c23)ccc1Oc1ccccc1 [Compound 126, (2S,4R)-1-((S)-25-(4-(3-(3-acrylamido-4-phenoxyphenyl)-4-amino-1H-pyrazolo[3,4-d]pyrimidin-1-yl)piperidin-1-yl)-2,2-dimethyl-5-oxo-7,10,13,16,19-pentaoxa-4-azapentacosanecarbonyl)-4-hydroxy-N-(4-(4-methylthiazol-5-yl)benzyl)pyrrolidine-2-carboxamide] | No | – | – |
| Cc1ncsc1-c1ccc(CNC(=O)[C@@H]2C[C@@H](O)CN2C(=O)[C@H](C(C)C)N2Cc3ccccc3C2=O)c(OCCCCOCCCCN2CCC(n3nc(-c4ccc(Oc5ccccc5)cc4)c4c(N)ncnc43)CC2)c1 [Compound 127, (2S,4R)—N-(2-(4-(4-(4-(4-amino-3-(4-phenoxyphenyl)-1H-pyrazolo[3,4-d]pyrimidin-1-yl)piperidin-1-yl)butoxy)butoxy)-4-(4-methylthiazol-5-yl)benzyl)-4-hydroxy-1-((S)-3-methyl-2-(1-oxoisoindolin-2-yl)butanoyl)pyrrolidine-2-carboxamide] | – | 162 | Max (BTK; concentration not given): 50% |
| CN1C(=O)CCC(N2C(=O)c3ccc(NC(=O)COCCOCCN4CCC(n5nc(-c6ccc(Oc7ccccc7)cc6)c6c(N)ncnc65)CC4)cc3C2=O)C1=O (stereo not shown) [Compound 130, 2-(2-(2-(4-(4-amino-3-(4-phenoxyphenyl)-1H-pyrazolo[3,4-d]pyrimidin-1-yl)piperidin-1-yl)ethoxy)ethoxy)-N-(2-(1-methyl-2,6-dioxopiperidin-3-yl)-1,3-dioxoisoindolin-5-yl)acetamide] | – | – | ability to degrade BTK (BTK; NAMALWA cells, 24 h): neither ibrutinib nor Compound 130 were able to induce degradation of BTK |
| Nc1ncnc2c1c(-c1ccc(Oc3ccccc3)cc1)nn2C1CCN(CCOCCOCCOc2ccc3c(c2)C(=O)N(C2CCC(=O)NC2=O)C3=O)CC1 (stereo not shown) [Compound 131, 5-(2-(2-(2-(4-(4-amino-3-(4-phenoxyphenyl)-1H-pyrazolo[3,4-d]pyrimidin-1-yl)piperidin-1-yl)ethoxy)ethoxy)ethoxy)-2-(2,6-dioxopiperidin-3-yl)isoindoline-1,3-dione] | – | 13 | Max (BTK; concentration not given): >99% |
| Nc1ncnc2c1c(-c1ccc(Oc3ccccc3)cc1)nn2C1CCN(CCOCCOCCOc2ccc3c(c2)CN(C2CCC(=O)NC2=O)C3=O)CC1 (stereo not shown) [Compound 135, 3-(5-(2-(2-(2-(4-(4-amino-3-(4-phenoxyphenyl)-1H-pyrazolo[3,4-d]pyrimidin-1-yl)piperidin-1-yl)ethoxy)ethoxy)ethoxy)-1-oxoisoindolin-2-yl)piperidine-2,6-dione] | – | 7 | Max (BTK; concentration not given): >99% |

More lines, main results first:

| HER3 Degradation (HER3) | SMILES | DC50 (BTK; NAMALWA cells, read-out: DC50) [nM] | also measured |
| --- | --- | --- | --- |
| No | Nc1ncnc2c1c(-c1ccc(Oc3ccccc3)cc1)nn2C1CCN(CCOCC(=O)Nc2cccc3c2C(=O)N(C2CCC(=O)NC2=O)C3=O)CC1 (stereo not shown) [Compound 100, 2-(2-(4-(4-amino-3-(4-phenoxyphenyl)-1H-pyrazolo[3,4-d]pyrimidin-1-yl)piperidin-1-yl)ethoxy)-N-(2-(2,6-dioxopiperidin-3-yl)-1,3-dioxoisoindolin-4-yl)acetamide] | – | ability to degrade BTK (BTK; NAMALWA cells, 24 h): inability to degrade BTK; DC50 (BTK; NAMALWA cells): No Degradation (n = 4) |
| No | Nc1ncnc2c1c(-c1ccc(Oc3ccccc3)cc1)nn2C1CCN(CCOCCOCC(=O)Nc2cccc3c2C(=O)N(C2CCC(=O)NC2=O)C3=O)CC1 (stereo not shown) [Compound 101, 2-(2-(2-(4-(4-amino-3-(4-phenoxyphenyl)-1H-pyrazolo[3,4-d]pyrimidin-1-yl)piperidin-1-yl)ethoxy)ethoxy)-N-(2-(2,6-dioxopiperidin-3-yl)-1,3-dioxoisoindolin-4-yl)acetamide] | – | ability to degrade BTK (BTK; NAMALWA cells, 24 h): inability to degrade BTK; DC50 (BTK; NAMALWA cells): No Degradation |
| No | Nc1ncnc2c1c(-c1ccc(Oc3ccccc3)cc1)nn2C1CCN(CCCOCCCOCCC(=O)Nc2cccc3c2C(=O)N(C2CCC(=O)NC2=O)C3=O)CC1 (stereo not shown) [Compound 103, 3-(3-(3-(4-(4-amino-3-(4-phenoxyphenyl)-1H-pyrazolo[3,4-d]pyrimidin-1-yl)piperidin-1-yl)propoxy)propoxy)-N-(2-(2,6-dioxopiperidin-3-yl)-1,3-dioxoisoindolin-4-yl)propanamide] | 68.3 | Max (BTK; at 1.0 μM, NAMALWA cells): 95% |
| No | Nc1ncnc2c1c(-c1ccc(Oc3ccccc3)cc1)nn2C1CCN(CCCCCCOCCOCC(=O)Nc2cccc3c2C(=O)N(C2CCC(=O)NC2=O)C3=O)CC1 (stereo not shown) [Compound 104, 2-[2-[6-[4-[4-amino-3-(4-phenoxyphenyl)pyrazolo[3,4-d]pyrimidin-1-yl]-1-piperidyl]hexoxy]ethoxy]-N-[2-(2,6-dioxo-3-piperidyl)-1,3-dioxo-isoindolin-4-yl]acetamide] | 80.6 | degradation of BTK at 1.0 μM (BTK; 1.0 μM, NAMALWA cells): nearly complete degradation; Max (BTK; at 1.0 μM, NAMALWA cells): 96% |
| No | C=CC(=O)Nc1cc(-c2nn(C3CCN(CCCCCCOCCOCCOCC(=O)N[C@H](C(=O)N4C[C@H](O)C[C@H]4C(=O)NCc4ccc(-c5scnc5C)cc4)C(C)(C)C)CC3)c3ncnc(N)c23)ccc1Oc1ccccc1 [Compound 123, (2S,4R)-1-((S)-19-(4-(3-(3-acrylamido-4-phenoxyphenyl)-4-amino-1H-pyrazolo[3,4-d]pyrimidin-1-yl)piperidin-1-yl)-2,2-dimethyl-5-oxo-7,10,13-trioxa-4-azanonadecanecarbonyl)-4-hydroxy-N-(4-(4-methylthiazol-5-yl)benzyl)pyrrolidine-2-carboxamide] | – | – |
| No | C=CC(=O)Nc1cc(-c2nn(C3CCN(CCCCCCOCCCCCOCC(=O)N[C@H](C(=O)N4C[C@H](O)C[C@H]4C(=O)NCc4ccc(-c5scnc5C)cc4)C(C)(C)C)CC3)c3ncnc(N)c23)ccc1Oc1ccccc1 [Compound 124, (2S,4R)-1-((S)-2-(2-(5-(6-(4-(3-(3-acrylamido-4-phenoxyphenyl)-4-amino-1H-pyrazolo[3,4-d]pyrimidin-1-yl)piperidin-1-yl)hexyloxy)pentyloxy)acetamido)-3,3-dimethylbutanoyl)-4-hydroxy-N-(4-(4-methylthiazol-5-yl)benzyl)pyrrolidine-2-carboxamide] | – | – |

— patent US11028088B2, “Modulators of BTK proteolysis and methods of use” (Yale University, priority 2018, dated 2021)
